Each structure is given as a SMILES string.

In the case of `CCOP(=O)(Cc1ccc(NC(=O)CCc2cnoc2-c2ccc(F)cc2)cc1)OCC`, the melting point (as a rule, the temperature of the solid-liquid transition) is 134 to 135 °C.
On to `CCOP(=O)(O)Cc1ccc(NC(=O)CCc2cnoc2-c2ccccc2)cc1`, for which the melting point fell in the range of 80 to 82 °C.
`O=C(O)CCc1cnoc1-c1ccc(OC(F)(F)F)cc1` [Example 1, 3-[5-(4-trifluoromethoxyphenyl)-4-isoxazolyl]propionic acid]: the melting point lay in the range of 116 to 118 °C.
As for `O=C(O)CCc1conc1-c1ccc(Cl)cc1` [Example 5, 3-[3-(4-chlorophenyl)-4-isoxazolyl]propionic acid], the melting point was 149 to 150 °C.
The value for `O=C(O)CCc1cnoc1-c1ccc(Cl)c(Br)c1` [Example 6, 3-[5-(3-bromo-4-chlorophenyl)-4-isoxazolyl]propionic acid] was 177 to 180 °C; that for `O=C(O)CCc1cnoc1-c1ccccc1` [Example 7, 3-(5-phenyl-4-isoxazolyl)propionic acid] was 90 to 91 °C; that for `O=C(O)CCc1cnoc1-c1ccc(C(F)(F)F)cc1` [Example 10, 3-[5-(4-trifluoromethylphenyl)-4-isoxazolyl]propionic acid] was 171 to 172 °C.
Turning to `O=C(O)CCc1cnoc1-c1ccc(F)cc1` [Example 11, 3-[5-(4-fluorophenyl)-4-isoxazolyl]propionic acid], the melting point lay in the range of 126 to 127 °C.
Take `Cc1ccc(-c2oncc2CCC(=O)O)cc1` [Example 12, 3-[5-(4-methylphenyl)-4-isoxazolyl]propionic acid]: the melting point is 121 to 122 °C.
Turning to `COc1ccc(-c2oncc2CCC(=O)O)cc1` [Example 13, 3-[5-(4-methoxyphenyl)-4-isoxazolyl]propionic acid], the melting point was 101 to 102 °C.
Turning to `NC(=O)CCc1conc1-c1ccc(Cl)cc1` [Example 18, 3-[3-(4-chlorophenyl)-4-isoxazolyl]propionamide], the melting point lay in the range of 158 to 159 °C.
Next, `NC(=O)CCc1cnoc1-c1ccccc1` [Example 22, 3-(5-phenyl-4-isoxazolyl)propionamide]: 151 to 152 °C.
The value for `CCNC(=O)CCc1cnoc1-c1ccccc1` [Example 23, N-ethyl-3-(5-phenyl-4-isoxazolyl)propionamide] was 75 to 76 °C; that for `O=C(O)/C=C/c1cnoc1-c1ccccc1` [Example 24, (E)-3-(5-phenyl-4-isoxazolyl)propenoic acid] was 197 to 199 °C; that for `NC(=O)/C=C/c1cnoc1-c1ccccc1` [Example 25, (E)-3-(5-phenyl-4-isoxazolyl)propenamide] was 194 to 196 °C.
Next, `CCNC(=O)/C=C/c1cnoc1-c1ccccc1` [Example 27, (E)-N-ethyl-3-(5-phenyl-4-isoxazolyl)propenamide]: 156 to 157 °C; `Cc1noc(-c2ccccc2)c1CCC(N)=O` [Example 28, 3-(3-methyl-5-phenyl-4-isoxazolyl)propionamide]: 149 to 151 °C; `O=C(O)CCc1conc1-c1ccc(-c2ccccc2)cc1` [Example 57, 3-[3-(4-phenylphenyl)-4-isoxazolyl]propionic acid]: 169 to 170 °C.
`O=C(O)CCc1cnoc1-c1ccc(F)cc1F` [Example 59, 3-[5-(2,4-difluorophenyl)-4-isoxazolyl]propionic acid] gave a melting point of 125 to 126 °C.
The value for `COC(=O)CCc1cnoc1-c1ccc(C(F)(F)F)cc1` [Example 60, methyl 3-[5-(4-trifluoromethylphenyl)-4-isoxazolyl]propionate] was 68 to 69 °C; that for `COC(=O)CCc1cnoc1-c1ccc(F)cc1F` [Example 61, methyl 3-[5-(2,4-difluorophenyl)-4-isoxazolyl]propionate] was 40 to 41 °C.
The value for `OCCCc1cnoc1-c1ccc(C(F)(F)F)cc1` [Example 62, 3-[5-(4-trifluoromethylphenyl)-4-isoxazolyl]propan-1-ol] was 85 to 86 °C; that for `COC(=O)CCc1cnoc1-c1ccc(Cl)s1` [Example 65, methyl 3-[5-(5-chloro-2-thienyl)-4-isoxazolyl]propionate] was 34 to 35 °C; that for `O=C(O)CCc1cnoc1-c1ccc(Cl)cc1Cl` [Example 69, 3-[5-(2,4-dichlorophenyl)-4-isoxazolyl]propionic acid] was 106 to 107 °C.
In turn, `O=C(O)CCc1cnoc1-c1cc(Cl)cc(Cl)c1` [Example 74, 3-[5-(3,5-dichlorophenyl)-4-isoxazolyl]propionic acid] had a melting point of 143 to 144 °C.
The value for `O=C(O)CCc1cnoc1-c1ccc([N+](=O)[O-])cc1` [Example 80, 3-[5-(4-nitrophenyl)-4-isoxazolyl]propionic acid] was 204 to 205 °C; that for `O=C(O)CCc1cnoc1-c1cccc(Cl)c1` [Example 86, 3-[5-(3-chlorophenyl)-4-isoxazolyl]propionic acid] was 110 to 111 °C.
For `O=C(O)CCc1cnoc1-c1ccc2c(c1)OCO2` [Example 89, 3-[5-(1,3-benzodioxol-5-yl)-4-isoxazolyl]propionic acid], the melting point lay within 150 to 151 °C.
The compound `Cc1cc(-c2oncc2CCC(=O)O)ccc1Cl` [Example 95, 3-[5-(4-chloro-3-methylphenyl)-4-isoxazolyl]propionic acid] showed a melting point of 158 to 159 °C.
The value for `Cc1cc(-c2oncc2CCCO)ccc1Cl` [Example 97, 3-[5-(4-chloro-3-methylphenyl)-4-isoxazolyl]propan-1-ol] was 50 to 51 °C; that for `O=C(O)CCc1cnoc1-c1cc(Cl)ccc1Cl` [Example 98, 3-[5-(2,5-dichlorophenyl)-4-isoxazolyl]propionic acid] was 103 to 104 °C; that for `COc1ccc(-c2oncc2CCC(=O)O)cc1OC` [Example 100, 3-[5-(3,4-dimethoxyphenyl)-4-isoxazolyl]propionic acid] was 169 to 170 °C.
Next, `CSc1ccc(-c2oncc2CCC(=O)O)cc1` [Example 103, 3-[5-(4-methylthiophenyl)-4-isoxazolyl]propionic acid]: 124 to 125 °C.
The compound `CSc1ccc(-c2oncc2CCCO)cc1` [Example 105, 3-[5-(4-methylthiophenyl)-4-isoxazolyl]propan-1-ol] came in with a melting point of 54 to 55 °C.
Next, `CS(=O)(=O)c1ccc(-c2oncc2CCCO)cc1` [Example 106, 3-[5-(4-methylsulfonylphenyl)-4-isoxazolyl]propan-1-ol]: 125 to 126 °C; `C[S+]([O-])c1ccc(-c2oncc2CCCO)cc1` (centres unmarked) [Example 107, 3-[5-(4-methylsulfinylphenyl)-4-isoxazolyl]propan-1-ol]: 73 to 74 °C; `O=C(O)CCc1cnoc1-c1ccc(Cl)c(F)c1` [Example 108, 3-[5-(4-chloro-3-fluorophenyl)-4-isoxazolyl]propionic acid]: 139 to 140 °C.
The value for `O=C(O)CCc1conc1-c1ccc(Cl)c(Cl)c1` [Example 111, 3-[3-(3,4-dichlorophenyl)-4-isoxazolyl]propionic acid] was 181 to 182 °C.

These data come from patent publication US7022725B2, “Isoxazole derivatives” (Takeda Pharmaceutical Company Limited, priority 2000, dated 2006).
